Laboratory results reported in US20260232662A1, “MIR-124 INDUCER, AND PREPARATION METHOD THEREFOR AND USE THEREOF” (NANJING SYNNOCARE PHARMACEUTICAL TECHNOLOGY CO., LTD., priority 2023, published 2026).

Test system: miR-124
Experiment: Induction of miR-124 expression in PBMC cells (qPCR)
Type: cell-based
Details: Homo sapiens, 72 h, 0.1 μM compound, human PBMCs stimulated with PMA/ionomycin, miR-191 reference gene, read-out: miR-124 expression, Fold change vs DMSO
Description: This study evaluated the ability of the compound of the present invention to influence miR-124 transcriptional activity in vitro. The experiment analyzed miR-124 expression in human PBMCs (Sailybio) using quantitative PCR (qPCR).
Thawed human PBMCs (1 mL) were added to 19 mL of culture medium (RPMI1640+10% hFBS+1‰ 2-mercaptoethanol) and the PBMCs were incubated in a cell culture incubator for 30 minutes. The PBMCs were collected and the cells (3.0*10^6 cells/well/3 mL) were resuspended in medium containing PMA (10 ng/mL; Invivogen) and ionomycin (200 ng/mL; Invivogen). The cells were incubated in a 6-well plate for 48 hours. Diluted compound was added to the cells to achieve a final concentration of 0.1 μM. After 72 hours, the samples were centrifuged and the cells were collected.
Total miRNA was extracted from the cells using the MiPure Cell/Tissue miRNA Kit (Vazyme) according to the manufacturer's instructions, followed by purification. The purified samples were treated with genomic DNA elimination buffer, and reverse transcription was performed using a GeneAmp PCR System. The resulting cDNA was subjected to quantitative real-time PCR (qPCR) analysis on a QuantStudio™ 7 Flex Real-Time PCR System. Data analysis was performed using the QuantStudio 7 software with default settings to automatically determine Ct values, and the results were exported. In this assay, miR-191 was used as the reference gene, and the DMSO-treated group served as the control. The relative expression of miR-124 was calculated using the following formula: […]

Row | SMILES | fold induction at 0.1 µM
1 | Cn1c(=O)c(Nc2ccc(OC(F)(F)F)cc2)nc2c(Cl)cccc21 [Compound 1, 5-Chloro-1-methyl-3-((4-(trifluoromethoxy)phenyl)amino) quinoxalin-2(1H)-one] | 16
2 | FC(F)(F)Oc1ccc(Nc2nc3c(Cl)cccc3n3cnnc23)cc1 [Compound 6] | 11.9
3 | FC(F)(F)Oc1ccc(NC2=Nc3c(Cl)cccc3N3CCN=C23)cc1 [Compound 9] | 26.9
4 | Cn1c(=O)c(Nc2ccc(SC(F)(F)F)cc2)nc2c(Cl)cccc21 [Compound 10] | 15.4
5 | Cn1c(=O)c(Nc2ccc(C(F)(F)F)cc2)nc2c(Cl)cccc21 [Compound 11] | 18.4
6 | Cn1c(=O)c(Nc2ccc3c(c2)OC(F)(F)O3)nc2c(Cl)cccc21 [Compound 12] | 22
7 | Cn1c(=O)c(Nc2ccc(OC(F)(F)F)cc2)nc2c(F)cc(Cl)cc21 [Compound 13] | 20.9
8 | Cn1c(=O)c(Nc2ccc3c(c2)OC(F)(F)O3)nc2c(F)cc(Cl)cc21 [Compound 14] | 24.7
9 | FC(F)(F)Sc1ccc(Nc2nc3c(Cl)cccc3n3ccnc23)cc1 [Compound 15] | 12.7
10 | FC(F)(F)c1ccc(Nc2nc3c(Cl)cccc3n3ccnc23)cc1 [Compound 16] | 13.4
11 | FC1(F)Oc2ccc(Nc3nc4c(Cl)cccc4n4ccnc34)cc2O1 [Compound 17] | 19
12 | FC(F)Oc1ccc(Nc2nc3c(Cl)cccc3n3ccnc23)cc1 [Compound 21] | 15.5
13 | FS(F)(F)(F)(F)c1ccc(Nc2nc3c(Cl)cccc3n3ccnc23)cc1 [Compound 22] | 15.3
14 | Fc1cc(Nc2nc3c(Cl)cccc3n3ccnc23)ccc1C(F)(F)F [Compound 28] | 10.4
15 | FC(F)(F)c1ccc(Nc2nc3c(Cl)cccc3n3ccnc23)cc1Cl [Compound 29] | 9.32
16 | FC(F)(F)c1ccc(Nc2nc3c(Cl)cccc3n3ccnc23)nc1 [Compound 34] | 14.7
17 | FC1(F)Cc2cc(Nc3nc4c(Cl)cccc4n4ccnc34)ccc2O1 [Compound 39, 6-Chloro-N-(2,2-difluoro-2,3-dihydrobenzofuran-5-yl) imidazolo [1,2-a] quinoxalin-4-amine] | 16.8
18 | FC1(F)Oc2ccc(Nc3nc4c(Cl)cccc4n4ccnc34)cc2C1(F)F [Compound 40, 6-Chloro-N-(2,2,3,3-tetrafluoro-2,3-dihydrobenzofuran-5-yl) imidazolo [1,2-a] quinoxalin-4-amine] | 17.5
19 | Fc1cccc2c1nc(Nc1ccc(OC(F)(F)F)cc1)c1nccn12 [Compound 41] | 24.4
20 | Fc1cccc2c1nc(Nc1ccc3c(c1)OC(F)(F)O3)c1nccn12 [Compound 42] | 14.1
21 | Fc1cccc2c1nc(Nc1ccc(OC(F)(F)F)c(Cl)c1)c1nccn12 [Compound 44] | 17.5

Row | SMILES | fold induction at 0.1 µM
22 | Fc1cccc2c1nc(Nc1ccc(C(F)(F)F)cc1)c1nccn12 [Compound 45] | 17.9
23 | Fc1cc(Nc2nc3c(F)cccc3n3ccnc23)ccc1C(F)(F)F [Compound 46] | 9.99
24 | Fc1cccc2c1nc(Nc1ccc(C(F)(F)F)c(Cl)c1)c1nccn12 [Compound 47] | 9.86
25 | FC(F)(F)Oc1ccc(Nc2nc3c(Br)cccc3n3ccnc23)cc1 [Compound 48] | 20.4
26 | Fc1cc(Nc2nc3c(Br)cccc3n3ccnc23)ccc1OC(F)(F)F [Compound 49] | 19.5
27 | FC(F)(F)Oc1ccc(Nc2nc3c(Br)cccc3n3ccnc23)cc1Cl [Compound 50] | 18.5
28 | FC(F)(F)c1ccc(Nc2nc3c(Br)cccc3n3ccnc23)cc1 [Compound 51] | 23.1
29 | Fc1cc(Nc2nc3c(Br)cccc3n3ccnc23)ccc1C(F)(F)F [Compound 52] | 22.3
30 | Fc1cc(Cl)cc2c1nc(Nc1ccc(OC(F)(F)F)cc1)c1nccn12 [Compound 54] | 14.9
31 | Fc1cc(Cl)cc2c1nc(Nc1ccc3c(c1)OC(F)(F)O3)c1nccn12 [Compound 55] | 22.3
32 | Fc1cc(Nc2nc3c(F)cc(Cl)cc3n3ccnc23)ccc1OC(F)(F)F [Compound 56] | 17.2
33 | Fc1cc(Cl)cc2c1nc(Nc1ccc(C(F)(F)F)cc1)c1nccn12 [Compound 58] | 27.3
34 | FC(F)(F)Oc1ccc(Nc2nc3c(Cl)cc(Cl)cc3n3ccnc23)cc1 [Compound 61] | 12.1
35 | FC(F)(F)c1ccc(Nc2nc3c(Cl)cc(Cl)cc3n3ccnc23)cc1 [Compound 62] | 15.5
36 | Fc1cc(Nc2nc3c(Cl)cc(Cl)cc3n3ccnc23)ccc1C(F)(F)F [Compound 63] | 18.4
37 | FC(F)(F)Oc1ccc(Nc2nc3c(Cl)cc(Cl)cc3n3ccnc23)cc1Cl [Compound 66] | 22.7
38 | Fc1cc(NC2=Nc3c(Cl)cccc3N3CCN=C23)ccc1C(F)(F)F [Compound 69] | 22.9
39 | FC(F)(F)Oc1ccc(NC2=Nc3c(Cl)cccc3N3CCN=C23)cc1Cl [Compound 72] | 19
40 | Fc1cccc2c1N=C(Nc1ccc(OC(F)(F)F)cc1)C1=NCCN12 [Compound 73] | 8.59
41 | Fc1cccc2c1N=C(Nc1ccc(C(F)(F)F)cc1)C1=NCCN12 [Compound 74] | 31.6
42 | FC(F)(F)Oc1ccc(NC2=Nc3c(Br)cccc3N3CCN=C23)cc1 [Compound 79] | 17.8

Row | SMILES | fold induction at 0.1 µM
43 | FC(F)(F)c1ccc(NC2=Nc3c(Br)cccc3N3CCN=C23)cc1 [Compound 80] | 19.8
44 | Fc1cc(NC2=Nc3c(Br)cccc3N3CCN=C23)ccc1C(F)(F)F [Compound 81] | 15.3
45 | Fc1cc(NC2=Nc3c(Br)cccc3N3CCN=C23)ccc1OC(F)(F)F [Compound 83] | 18.3
46 | FC(F)(F)Oc1ccc(NC2=Nc3c(Cl)cc(Cl)cc3N3CCN=C23)cc1 [Compound 85] | 10.4
47 | FC(F)(F)Oc1ccc(NC2=Nc3c(Cl)cc(Cl)cc3N3CCN=C23)cc1Cl [Compound 87] | 15.8
48 | Fc1cc(Cl)cc2c1N=C(Nc1ccc(OC(F)(F)F)cc1)C1=NCCN12 [Compound 91] | 27.6
49 | Fc1cc(NC2=Nc3c(F)cc(Cl)cc3N3CCN=C23)ccc1OC(F)(F)F [Compound 92] | 18.8
50 | Fc1cc(Cl)cc2c1N=C(Nc1ccc(C(F)(F)F)cc1)C1=NCCN12 [Compound 95] | 27
51 | Fc1cc(NC2=Nc3c(F)cc(Cl)cc3N3CCN=C23)ccc1C(F)(F)F [Compound 96] | 17.7
52 | Fc1cccc2nc(Nc3ccc(OC(F)(F)F)cc3)c3nccn3c12 [Compound B2, 9-fluoro-N-(4-(trifluoromethoxy)phenyl)imidazolo [1,2-a]quinoxalin-4-amine] | 37.4
53 | FC(F)(F)Oc1ccc(Nc2nc3cccc(Br)c3n3ccnc23)cc1 [Compound B3, 9-bromo-N-(4-(trifluoromethoxy)phenyl)imidazolo [1,2-a]quinoxalin-4-amine] | 23.5
54 | Fc1ccc2nc(Nc3ccc(OC(F)(F)F)cc3)c3nccn3c2c1 [Compound B5, 8-fluoro-N-(4-(trifluoromethoxy)phenyl)imidazolo [1,2-a]quinoxalin-4-amine] | 31.3
55 | FC(F)(F)Oc1ccc(Nc2nc3ccc(Br)cc3n3ccnc23)cc1 [Compound B6, 8-bromo-N-(4-(trifluoromethoxy)phenyl)imidazolo [1,2-a]quinoxalin-4-amine] | 22
56 | Fc1ccc2c(c1)nc(Nc1ccc(OC(F)(F)F)cc1)c1nccn12 [Compound B8, 7-fluoro-N-(4-(trifluoromethoxy)phenyl)imidazolo [1,2-a]quinoxalin-4-amine] | 33.5
57 | FC(F)(F)Oc1ccc(Nc2nc3ccc(Cl)c(Cl)c3n3ccnc23)cc1 [Compound B16, 8,9-dichloro-N-(4-(trifluoromethoxy)phenyl)imidazolo [1,2-a]quinoxalin-4-amine] | 33.4
58 | Fc1ccc2nc(Nc3ccc(OC(F)(F)F)cc3)c3nccn3c2c1Cl [Compound B17, 9-chloro-8-fluoro-N-(4-(trifluoromethoxy)phenyl)imidazolo [1,2-a]quinoxalin-4-amine] | 31.9
59 | FC(F)(F)Oc1ccc(Nc2nc3ccc(Br)c(Cl)c3n3ccnc23)cc1 [Compound B18, 8-bromo-9-chloro-N-(4-(trifluoromethoxy)phenyl)imidazolo [1,2-a]quinoxalin-4-amine] | 22.6
60 | FC(F)(F)Oc1ccc(Nc2nc3cc(Cl)cc(Cl)c3n3ccnc23)cc1 [Compound B21, 7,9-dichloro-N-(4-(trifluoromethoxy)phenyl)imidazolo [1,2-a]quinoxalin-4-amine] | 35.2
61 | Fc1cc(Cl)c2c(c1)nc(Nc1ccc(OC(F)(F)F)cc1)c1nccn12 [Compound B22, 9-chloro-7-fluoro-N-(4-(trifluoromethoxy)phenyl)imidazolo [1,2-a]quinoxalin-4-amine] | 32.5
